# Measurements reported in PMC3124361 (Journal of medicinal chemistry, 2011).
# Like-named read-outs stand apart in the source and are kept apart here.
# How the values were obtained:
# [1] = Non-equilibrium solubility by nephelometry, pH 6.5; format: physicochemical; conditions: phosphate buffer
# human albumin = human albumin (Homo sapiens, UniProt P02768); experiment: Protein binding estimated on human albumin column; format: in vitro ADME; conditions: human albumin chromatographic method
# hDHODH = hDHODH (Homo sapiens, UniProt Q02127); conditions: read-out: IC50 hDHODH; reported previously; ref [13], [15]; cited from earlier work
# hDHODH, sequence (Q02127 31-395 limits assumed): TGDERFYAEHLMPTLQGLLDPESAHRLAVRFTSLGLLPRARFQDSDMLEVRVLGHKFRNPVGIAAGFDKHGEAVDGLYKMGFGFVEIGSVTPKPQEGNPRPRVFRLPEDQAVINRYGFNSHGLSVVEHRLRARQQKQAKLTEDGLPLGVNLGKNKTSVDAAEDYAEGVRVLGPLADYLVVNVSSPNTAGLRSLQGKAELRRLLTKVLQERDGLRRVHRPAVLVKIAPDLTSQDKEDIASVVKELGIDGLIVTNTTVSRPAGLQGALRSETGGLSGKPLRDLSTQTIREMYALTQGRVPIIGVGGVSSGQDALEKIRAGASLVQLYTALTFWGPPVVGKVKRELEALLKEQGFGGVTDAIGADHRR
# P. falciparum 3D7 cells [2] = conditions: cited from earlier work
# [3] = predicted hepatic extraction ratio, human; ref [13], [15]; cited from earlier work
# [4] = ref [13], [15], cited from earlier work
# PfDHODH = target: T1, PfDHODH (Plasmodium falciparum, UniProt Q08210); experiment: PfDHODH DCIP dye-based enzyme assay; format: biochemical
# T1 sequence (Q08210 158-569 limits assumed): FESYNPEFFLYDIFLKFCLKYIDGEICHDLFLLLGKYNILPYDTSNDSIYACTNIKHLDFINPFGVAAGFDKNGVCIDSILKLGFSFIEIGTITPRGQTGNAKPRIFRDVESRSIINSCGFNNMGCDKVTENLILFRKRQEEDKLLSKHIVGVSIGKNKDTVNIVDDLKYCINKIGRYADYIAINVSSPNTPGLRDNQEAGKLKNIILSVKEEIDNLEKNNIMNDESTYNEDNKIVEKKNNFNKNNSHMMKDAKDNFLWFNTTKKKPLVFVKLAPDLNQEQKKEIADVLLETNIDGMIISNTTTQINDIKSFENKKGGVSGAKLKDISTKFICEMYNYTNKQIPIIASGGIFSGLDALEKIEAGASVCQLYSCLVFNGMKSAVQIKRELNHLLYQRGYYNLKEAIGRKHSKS
# P. falciparum 3D7 cells [5] = experiment: P. falciparum whole cell assay; format: cell-based, Plasmodium falciparum
# [6] = In vitro metabolism in human liver microsomes; format: in vitro ADME
# [7] = In vitro metabolism in mouse liver microsomes; format: in vitro ADME; conditions: predicted hepatic extraction ratio
# [8] = Mouse systemic exposure after single oral dose; format: in vivo; conditions: single oral dose 20 mg/kg, plasma, 20 mg/kg
# [9] = Rat pharmacokinetics after IV and oral administration; format: in vivo
# rat plasma proteins = experiment: Protein binding in rat plasma by ultracentrifugation; format: in vitro ADME; conditions: 37°C
# [10] = test system: P. berghei NK65 ANKA strain; experiment: Peter's test, P. berghei efficacy in mice; format: in vivo, Plasmodium berghei
# human albumin, sequence (P02768 25-609): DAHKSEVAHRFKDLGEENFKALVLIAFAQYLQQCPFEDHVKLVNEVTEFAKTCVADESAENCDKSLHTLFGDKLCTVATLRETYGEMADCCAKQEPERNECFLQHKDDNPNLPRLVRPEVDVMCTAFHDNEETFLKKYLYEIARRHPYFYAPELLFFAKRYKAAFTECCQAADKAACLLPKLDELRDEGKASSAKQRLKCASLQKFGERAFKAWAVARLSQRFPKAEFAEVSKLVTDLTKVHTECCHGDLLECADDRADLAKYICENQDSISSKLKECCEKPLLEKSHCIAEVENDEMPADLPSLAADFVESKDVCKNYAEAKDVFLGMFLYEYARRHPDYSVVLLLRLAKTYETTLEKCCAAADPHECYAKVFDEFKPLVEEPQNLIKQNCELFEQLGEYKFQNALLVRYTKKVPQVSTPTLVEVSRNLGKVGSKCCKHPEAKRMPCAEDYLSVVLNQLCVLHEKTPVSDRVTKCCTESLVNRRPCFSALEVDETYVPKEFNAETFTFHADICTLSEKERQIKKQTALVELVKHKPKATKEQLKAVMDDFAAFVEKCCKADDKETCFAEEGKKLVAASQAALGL
smiles,measurement,setting,value
"Cc1cc(Nc2ccc3ccccc3c2)n2ncnc2n1 [Compound 1, (5-methyl-[1,2,4]triazolo[1,5-a]pyrimidin-7-yl)-naphthalen-2-yl-amine]",solubility,[1],45 to 90 µM
same,Human Plasma Binding,human albumin,93.8%
same,IC50,hDHODH,> 200000 nM
same,EC50,"P. falciparum 3D7 cells [2]; read-out: EC50 Pf 3D7 cells, serum media, reported previously, ref [13], [15]",76 nM
same,IC50,"P. falciparum 3D7 cells [2]; read-out: IC50 against the parasite, initial lead, ref [15]",50 to 100 nM
same,Eh Human,[3],0.84
same,CLint Mouse,"[4]; mouse liver microsomes, reported previously",229 μL/min/mg protein
same,Eh Mouse,"[4]; predicted hepatic extraction ratio, mouse",0.91
"Cc1cc(Nc2ccc(S(F)(F)(F)(F)F)cc2)n2ncnc2n1 [Compound 21, N-(4-Pentafluorosulfenylphenyl)-5-methyl-[1,2,4]triazolo[1,5-a]pyrimidin-7-amine]",IC50,PfDHODH; IC50 PfDHODH,< 300 nM
same,fold better activity (lower IC50) against PfDHODH than 2,PfDHODH; comparator 2,2-3 fold
same,fold EC50 above the levels for the comparator anti-malarial drugs,P. falciparum 3D7 cells [5],10-200 fold
same,solubility,[1],71 to 142 µM
same,Human Plasma Binding,human albumin,95.4%
same,microsomal CLint at 1 μM,"[6]; microsomes, pH 7.4",< 6 µL/min/mg
same,Eh Human,[6]; predicted hepatic extraction ratio,<0.2/<0.2
same,Eh Mouse,[7],<0.2/<0.2
same,Time above 1 μM,[8],18 h
same,adverse reactions following IV or oral administration,[9]; either dose route,No adverse reactions
same,clearance,"[9]; male, Sprague Dawley, in vivo, iv, 5.1 mg/kg",1.2 mL/min/kg
same,binding to rat plasma proteins,rat plasma proteins,95.2%
same,parasite clearance (in words),[10]; 50 mg/kg BID,none of the mice were parasite free on any day
same,parasite clearance (in words),[10]; 100 mg/kg QD,none of the mice were parasite free on any day
same,ED50,"[10]; Plasmodium berghei, in Mus musculus, po, read-out: ED50 95% confidence interval",10 to 29 mg/kg
same,adverse reactions attributed to drug,"[10]; any of the dose levels, efficacy study in mice",No adverse reactions
